Data set [1] concerns human lung adenocarcinoma cell line A549. Briefly: MTT cell viability assay, A549. In kind it is cell-based. Particulars: 24 h treatment. How it is done: (§1) A549, PC3, MCF-7, HT-29, WRL68 and MCF-7 cells were obtained from the ATTC (Rockville, MD, USA) and grown in RPMI-1640 medium, 10% fetal bovine serum (FBS) and 1% pen-strep, in humidified conditions at 5% CO2 and 37 °C. The different cell lines mentioned above were used to determine the inhibitory effects of compounds on cell growth using the MTT assay. This colorimetric assay is based on the conversion of the yellow tetrazolium bromide (MTT) to a purple formazan derivative by mitochondrial succinate dehydrogenase in viable cells. Cells were seeded in 96-well plate and incubated for 24 h at 37 °C with 5% CO2 saturation. After incubation, the cells were treated with different concentration of compounds and incubated for another 24 h. After 24 h of drug treatment, 20 µL of MTT solution at 5 mg/mL was added and incubated for 4 h. Dimethyl sulfoxide (DMSO) in volume of 100 µL is added into each well to dissolve the purple formazan formed. The colorimetric assay is measured and recorded at absorbance of 570 nm.
(Formazan colour is commonly taken as a measure of viable cells.)

Data set [2] concerns human adenocarcinoma cell line HT-29 (colorectal cancer). The data set is described as follows: MTT cell viability assay, HT-29. It is filed as cell-based. The note with it: 24 h treatment. Here is the method: as §1
The test system of data set [3] is human breast adenocarcinoma cell line MCF-7. Briefly: MTT cell viability assay, MCF-7. The note with it: MCF7, 24 h treatment. It is filed as cell-based. Here is the method:
as §1

In data set [4] the test system is human normal liver cell line WRL-68. Briefly: MTT cell viability assay, WRL68. It is filed as cell-based. Particulars: 24 h treatment. How it is done: as §1
Data set [5] concerns human prostate cancer cell line PC3. Briefly: MTT cell viability assay, PC3. It is filed as cell-based. Particulars: 24 h treatment. How it is done: as §1
In data set [6] the test system is MCF-7 (breast), A549 (lung), PC3 (prostate), HT-29 (colorectal) and WRL68 (liver). The data set is described as follows: MTT assay, summary over all five cell lines. The note with it: for IC50: Homo sapiens. In kind it is cell-based, human. How it is done: as §1
The subject of data set [7] is MCF-7 cells. Briefly: Multiparametric high content screening (HCS) cytotoxicity/apoptosis assay. In kind it is cell-based, human. The note with it: MCF-7; compounds 2-6 µg/mL, tamoxifen 0.04 µg/mL; vs control.
Protocol: Cells were treated with compound 1 (1A- 3 µg/mL; 1B- 6 µg/mL), 23 (23A- 3 µg/mL; 23B- 6 µg/mL), 25 (25A- 2 µg/mL; 25B- 4 µg/mL) and 5 (5A- 3 µg/mL; 5B- 6 µg/mL).
The toxic effects of Cpd 1, 5, 23 and 25 at different doses on MCF-7 cells were assayed using the high content screening (HCS) KineticScan Reader (Cellomics Inc, Pittsburgh, PA, USA) with the Multiparameter Cytotoxicity Kit 3. The kit contains four fluorescent dyes, i.e., blue fluorescent Hoechst 33342, membrane permeability, mitochondrial membrane potential, and cytochrome c dyes. They respectively detect changes in nuclear morphology (nuclear condensation), membrane permeability, mitochondrial membrane potential and expression of cytochrome c. The multiparametric apoptosis kit quantifies three fundamental parameters related to the process of apoptosis, i.e., nuclear condensation detected by the blue fluorescent nuclear dye, Hoechst 33342, cell permeability detected by permeability dye, mitochondrial damage detected by mitochondrial membrane potential dye and cytochrome c release by DyLight 649 Conjugates. Following treatment with different concentrations of compounds 1, 23, 25 and 5 as mentioned before, the fixation and staining for imaging analysis of the MCF-7 cells were performed according to the manufacturer’s instructions. […] Plates were analyzed using a Thermo Scientific ArrayScanHVTI HCS Reader (Cellomics Inc, Pittsburgh, PA, USA). This is a computerized automated fluorescence imaging microscope that automatically identifies stained cells and measures the intensity and distribution of fluorescence in individual cells. Images for each fluoroprobe were acquired at different channels using suitable filters with 20x objective at fixed exposure time. The Cell Health Profiling BioApplication software was used for image acquisitions and analysis. For each well, at least 25 fields, corresponding to at least 500 cells were automatically acquired and analyzed. All experiments were performed in triplicates. Cell average intensity (Mean) under the modified object mask within selected range in each channel was used as assay indicator, and reported as average fluorescence intensity.
Where [8] appears, read: all five cell lines, MTT, read-out: IC50 in all cell lines.
The mark [9] stands for this setting: all cell lines except for the A549 cell line, MTT, read-out: IC50 in all cell lines except A549.

Structures are written as SMILES. Values after ≈ are worked out from the molar mass of the structure shown. Where two headings read alike, the source gives them in different places. Some results are limits rather than exact numbers.

By IC50 is commonly meant the concentration at which inhibition is half-maximal. Turning to `COc1ccc(/C=C/C(=O)c2ccc(C)cc2)cc1` [Compound 15, 3-(4-Methoxyphenyl)-1-p-tolylpropenone], the IC50 was above 100 µg/mL in data set [1]; 29.6 ± 2.8 µg/mL (≈ 117 µM) in data set [2]; 32.4 ± 1.88 µg/mL (≈ 128 µM) in data set [3]; 50.9 ± 3.51 µg/mL (≈ 202 µM) in data set [4]; 43.3 ± 4.01 µg/mL (≈ 171 µM) in data set [5].
For the molecule `O=C(/C=C/c1ccccc1Cl)c1ccc(O)cc1` [Compound 6, 3-(2-Chlorophenyl)-(4-hydroxyphenyl)-propenone], the IC50 in data set [1] stood at 25.2 ± 1.21 µg/mL (≈ 97.5 µM); in data set [2], 15.5 µg/mL (≈ 60 µM); in data set [3], 10 ± 1.4 µg/mL (≈ 38.7 µM); in data set [4], 13.2 ± 1.3 µg/mL (≈ 51.1 µM); in data set [5] it was 11 ± 1.8 µg/mL (≈ 42.5 µM).
Turning to `O=C(/C=C/c1ccccc1)c1ccc(O)cc1` [Compound 2, 1-(4-Hydroxyphenyl)-3-phenylpropenone], the IC50 in data set [1], in data set [2], in data set [3], in data set [4] and in data set [5] was above 100 µg/mL each time. The “cytotoxic effect in words” value in data set [6] (all cell lines, MTT) is “low cytotoxic effects”.
As to `COc1ccc(/C=C/C(=O)c2ccc(O)cc2)cc1` [Compound 14, 1-(4-Hydroxyphenyl)-3-(4-methoxyphenyl)-propenone], the IC50 in data set [1], in data set [2], in data set [3], in data set [4] and in data set [5] was above 100 µg/mL in each case. Also, the “cytotoxic effect in words” value in data set [6] is on record as “low cytotoxic effects”.
Usually melting point stands for the temperature, or range, at which the solid turns liquid. In the case of `O=C(/C=C/c1ccccc1O)c1ccc(O)cc1` [Compound 22, 3-(2-Hydroxyphenyl)-1-(4-hydroxyphenyl)-propenone], the melting point fell in the range of 287 to 289 °C. For the same molecule, the IC50 in data set [1] is above 100 µg/mL. The same molecule had an IC50 in data set [2] above 100 µg/mL. The IC50 in data set [3] was above 100 µg/mL. The molecule further gave an IC50 in data set [4] above 100 µg/mL. This molecule gave an IC50 in data set [5] above 100 µg/mL. In addition, the “cytotoxic effect in words” value in data set [6] is given as “low cytotoxic effects”.
As for `COc1ccc(C(=O)/C=C/c2ccccc2O)cc1` [Compound 24, 3-(2-Hydroxyphenyl)-1-(4-methoxyphenyl)-propenone], the IC50 in data set [1] is 14.2 ± 1 µg/mL (≈ 55.7 µM); in data set [2] it was 11.4 ± 1 µg/mL (≈ 44.9 µM); in data set [3], 7.15 ± 0.4 µg/mL (≈ 28.1 µM); in data set [4] it was 8.72 ± 1 µg/mL (≈ 34.3 µM); in data set [5], 5.58 ± 0.2 µg/mL (≈ 22 µM); in data set [6] (setting [8]) it was below 20 µg/mL. For the same molecule, in data set [6], the “cytotoxic effect in words” value is “high cytotoxicity”.
For the molecule `O=C(/C=C/c1ccccc1O)c1ccccc1` [Compound 21, 3-(2-Hydroxyphenyl)-1-phenylpropenone], the IC50 in data set [1] was 22.6 ± 1.1 µg/mL (≈ 101 µM); in data set [2] it was 19.8 ± 2.01 µg/mL (≈ 88.5 µM); in data set [3] it was 9.35 ± 1.2 µg/mL (≈ 41.7 µM); in data set [4], 17 ± 1.7 µg/mL (≈ 75.9 µM); in data set [5] it was 11.1 ± 0.4 µg/mL (≈ 49.4 µM); in data set [6] (setting [9]), below 20 µg/mL.
Turning to `CN(C)c1ccc(/C=C/C(=O)c2ccc(O)cc2)cc1` [Compound 18, 3-(4-Dimethylaminophenyl)-1-(4-hydroxy-phenyl)-propenone], the IC50 in data set [1], in data set [2], in data set [3], in data set [4] and in data set [5] was above 100 µg/mL in each case. Further, in data set [6] (all cell lines, MTT), the “cytotoxic effect in words” value is “low cytotoxic effects”.
As to `COc1ccc(C(=O)/C=C/c2ccc(N(C)C)cc2)cc1` [Compound 20, 3-(4-Dimethylaminophenyl)-1-(4-methoxy-phenyl)-propenone], the IC50 in data set [1] is 78.8 ± 4.4 µg/mL (≈ 280 µM); in data set [2] it was above 100 µg/mL; in data set [3], above 100 µg/mL; in data set [4], above 100 µg/mL; in data set [5], above 100 µg/mL. For the same molecule, the “cytotoxic effect in words” value in data set [6] was “low cytotoxic effects”.
Turning to `Cc1ccc(C(=O)/C=C/c2ccccc2)cc1` [Compound 3, 3-Phenyl-1-p-tolylpropenone], the half-maximal inhibitory concentration (IC50) in data set [1] amounted to 36.6 ± 1.76 µg/mL (≈ 165 µM); in data set [2] it was 19.1 ± 1 µg/mL (≈ 85.9 µM); in data set [3], 13.6 ± 1.01 µg/mL (≈ 61.3 µM); in data set [4], 21.3 ± 3.01 µg/mL (≈ 96 µM); in data set [5] it was 17.3 ± 1.1 µg/mL (≈ 77.8 µM).
Consider `Cc1ccc(C(=O)/C=C/c2cccc(C)c2)cc1` [Compound 11, 3-m-Tolyl-1-p-tolylpropenone], for which the IC50 is 24.9 ± 1.9 µg/mL (≈ 105 µM) in data set [1]; 16.3 ± 1.9 µg/mL (≈ 69 µM) in data set [2]; 10.2 ± 1.89 µg/mL (≈ 43 µM) in data set [3]; 13.9 ± 1.3 µg/mL (≈ 59 µM) in data set [4]; 8.73 ± 0.21 µg/mL (≈ 36.9 µM) in data set [5]; below 20 µg/mL in data set [6] (setting [9]).
In the case of `COc1ccc(/C=C/C(=O)c2ccccc2)cc1` [Compound 13, 3-(4-Methoxyphenyl)-1-phenylpropenone], the IC50 is 32.6 ± 2.5 µg/mL (≈ 137 µM) in data set [1]; 22.8 ± 2.3 µg/mL (≈ 95.6 µM) in data set [2]; 11.62 ± 0.101 µg/mL (≈ 48.8 µM) in data set [3]; 21.5 ± 1.7 µg/mL (≈ 90.1 µM) in data set [4]; 12.1 ± 0.99 µg/mL (≈ 50.7 µM) in data set [5].
Take `COc1ccc(/C=C/C(=O)c2ccc(OC)cc2)cc1` [Compound 16, 1,3-Bis-(4-Methoxyphenyl)-propenone]: the IC50 was above 100 µg/mL in data set [1]; 67.1 ± 4.1 µg/mL (≈ 250 µM) in data set [2]; 41.4 ± 1.91 µg/mL (≈ 154 µM) in data set [3]; 60.8 ± 4.22 µg/mL (≈ 227 µM) in data set [4]; above 100 µg/mL in data set [5].
As to `Cc1cccc(/C=C/C(=O)c2ccc(O)cc2)c1` [Compound 10, 1-(4-Hydroxyphenyl)-3-m-tolylpropenone], the IC50 was 19.7 ± 1.22 µg/mL (≈ 82.6 µM) in data set [1]; 12.1 ± 3 µg/mL (≈ 50.8 µM) in data set [2]; 8.34 ± 0.472 µg/mL (≈ 35 µM) in data set [3]; 13.4 ± 2.09 µg/mL (≈ 56.4 µM) in data set [4]; 13.7 ± 1.1 µg/mL (≈ 57.5 µM) in data set [5]; below 20 µg/mL in data set [6] (setting [8]). The “cytotoxic effect in words” value in data set [6] is “high cytotoxicity”.
Consider `COc1ccc(C(=O)/C=C/c2ccccc2)cc1` [Compound 4, 1-(4-Methoxyphenyl)-3-phenylpropenone], for which the IC50 came out at 77 ± 2.1 µg/mL (≈ 323 µM) in data set [1]; 37.3 ± 2.81 µg/mL (≈ 156 µM) in data set [2]; 19.1 ± 1 µg/mL (≈ 80.4 µM) in data set [3]; 57.3 ± 3.8 µg/mL (≈ 240 µM) in data set [4]; 21.1 ± 1.24 µg/mL (≈ 88.7 µM) in data set [5].
Regarding `COc1ccc(C(=O)/C=C/c2ccccc2Cl)cc1` [Compound 8, 3-(2-Chlorophenyl)-1-(4-methoxy-phenyl)propenone], the IC50 in data set [1], in data set [2], in data set [3], in data set [4] and in data set [5] was above 100 µg/mL throughout. Further, in data set [6], the “cytotoxic effect in words” value is “low cytotoxic effects”.
`Cc1ccc(C(=O)/C=C/c2ccc(N(C)C)cc2)cc1` [Compound 19, 3-(4-Dimethylaminophenyl)-1-p-tolyl-propenone] returned a melting point of 124 to 125 °C. In data set [1], this molecule yielded an IC50 of 58.5 ± 3.2 µg/mL (≈ 221 µM). In data set [2], the IC50 turned out to be 69.5 ± 4.23 µg/mL (≈ 262 µM). The same molecule had an IC50 in data set [3] of 57.3 ± 3.1 µg/mL (≈ 216 µM). This molecule registered an IC50 in data set [4] of 39.8 ± 3.9 µg/mL (≈ 150 µM). Also, in data set [5], the IC50 was above 100 µg/mL.
In turn, `Cc1cccc(/C=C/C(=O)c2ccccc2)c1` [Compound 9, 1-Phenyl-3-m-tolylpropenone] had a melting point of 68 to 70 °C. This molecule also gave an IC50 in data set [1] of 24.7 ± 2 µg/mL (≈ 111 µM). Moreover, the midpoint of inhibition in data set [2], the IC50, lay at 19 ± 1.5 µg/mL (≈ 85.3 µM). The IC50 in data set [3] was 9.34 ± 0.56 µg/mL (≈ 42 µM). Further, inhibition in data set [4] was half-maximal at 9.78 ± 1.01 µg/mL (≈ 44 µM) (IC50). Moreover, the IC50 in data set [5] was found to be 9.4 ± 1.9 µg/mL (≈ 42.3 µM).
As to `CN(C)c1ccc(/C=C/C(=O)c2ccccc2)cc1` [Compound 17, 3-(4-Dimethylaminophenyl)-1-phenyl-propenone], the IC50 in data set [1] was above 100 µg/mL; in data set [2], 64.3 ± 5.02 µg/mL (≈ 256 µM); in data set [3], 99.3 ± 6.16 µg/mL (≈ 395 µM); in data set [4], above 100 µg/mL; in data set [5] it was above 100 µg/mL.
Take `CC/C(=C(\c1ccccc1)c1ccc(OCCN(C)C)cc1)c1ccccc1` [tamoxifen, reference compound]: in data set [7], the cytochrome c release result was “found to increase”, the mitochondrial membrane potential entry is “reduction in mitochondrial membrane potential dye retention” and the “total nuclear intensity (Hoechst 33342 nuclear chromatin staining)” value is on record as “increase in nuclear chromatin staining”.

These data come from PMC6268294, “Synthesis of Chalcones with Anticancer Activities” (Molecules, 2012).
